Source: article PMC9227781, “Inhibitors of O-Acetylserine Sulfhydrylase with a Cyclopropane-Carboxylic Acid Scaffold Are Effective Colistin Adjuvants in Gram Negative Bacteria” (Pharmaceuticals, 2022)

Columns and labels:
[1] = test system: S. Typhimurium ATCC14028; test: Checkerboard assay with colistin, S. Typhimurium; format: cell-based, Salmonella enterica serovar Typhimurium; conditions: for MIC: Salmonella enterica, colistin in combination with compound at 8 μg/mL; for fold reduction with respect to the MIC of colistin alone, S. Typhimurium: compound at 8 µg/mL
Description: (§1) Antimicrobial activity of associations between the different compounds and colistin (Sigma-Aldrich, St. Louis, MO, USA, lot n. 049M-4836 V) was tested with checkerboard assay with minor modifications, as mentioned in the previous work. For each assay, three experiments with three replicates each were assessed. For each compound tested concentration, 96-wells microtiter U-plates were prepared with twofold serial dilutions of colistin in MHB starting from the MIC value (µg/mL) for ten consecutive dilutions in 50 µL of broth. In each well of the same replicate, 1 µL of each compound in DMSO was added at a fixed concentration, 100 times higher than the final desired concentration (3.2; 1.6; 0.8 mg/mL). Subsequently, 49 µL of the bacterial suspension at a concentration of 10^6 CFU/mL, adjusted spectrophotometrically as reported above, was added to each well, reaching the final bacterial concentration of 5 × 10^5 CFU/mL. Growth and sterility controls were performed for each experiment and for each replicate. Finally, the plates were incubated at 37 °C in aerobic atmosphere for 24 h. After incubation, plates were read by unaided eye with a microtiter reading mirror and then the OD of each well of the plates was measured spectrophotometrically at 620 nm. MIC values were calculated as the arithmetic mean ± SD of the unaided eye reading and the inhibition of growth for each tested dilution was calculated from the OD values (mean ± SD).
(§2) To evaluate the antimicrobial effect of the two molecules in association, the FIC index was calculated as follows. The MICs of each of the two molecules tested individually and in combination with each other were evaluated and the results have been included in the following formula as reported by Meletiadis et al.: FIC=MICA in combination/MICA+MICB in combination/MICB where MICA was the MIC of the compound UPAR415 and MICA in combination was the MIC of UPAR415 in combination with colistin. MICB was the MIC of colistin and MICB in combination was the MIC of colistin in combination with UPAR415. From the results of the FIC index formula, the antimicrobial activity in combination of the two molecules can be considered: synergistic, additive, indifferent of antagonistic. If the FIC index is ≤ 0.5, the association is synergic; additive if FIC is between 0.5 and 1; indifferent if FIC is between 1 and 4; and antagonistic if FIC is ≥4 [50].
(§3) Statistical analysis of checkerboard results in comparison with MIC values of colistin alone was performed using the Analysis of Variance (ANOVA) test.

[2] = test system: K. pneumoniae ATCC13883; test: Checkerboard assay with colistin, K. pneumoniae; format: cell-based, Klebsiella pneumoniae; conditions: for reduction of the MIC of colistin, K. pneumoniae: association of colistin with compound; for MIC Colistin K. pneumoniae: colistin in combination with compound at 8 μg/mL
Description: as §1, §2, §3

[3] = test system: S. Typhimurium DW378; test: Target engagement: MIC of 12h and colistin in cysK/cysM-inactive mutant strain; format: cell-based, Salmonella enterica serovar Typhimurium
Description: In this regard, compound 12h has been selected because of its favorable overall properties. It has been tested at a concentration of 32 μg/mL, in order to ensure complete inactivation of both the OASS isoforms. […] The MIC assays of 12h and colistin alone on the DW378 strain have been performed and they have been compared with those obtained on the WT strain. […] But, on the other hand, the MIC value of colistin was […] lower on the mutant strain than that on the WT, a result that overlapped those achieved with the association of colistin and 12h in WT cells.
MIC values were evaluated following CLSI guidelines with some modifications, as referred to in previous work. Twofold dilutions 25.6–0.05 mg/mL of the tested compounds were performed in DMSO in separate 96-well microtiter U-plates (Greiner, Milan, Italy). In a different 96-well microtiter U-plate, for each well of the replicates, 49 µL of broth medium were added. Then, in each well of the plate, one microliter of each compound at variable dilution in DMSO was added. For each test, three independent experiments with three replicates each were performed.
as §1
* This strain is defective for the expression of cysK and cysM genes, encoding for isozymes OASS-A and B. The genotypes of this strain are trpC109, cysK1772, and cysM1770. […]

[4] = compound at 8 μg/mL with colistin

## Cc1ccc(CC2(C(=O)O)CC2c2cccc(N3CC(C)OC(C)C3)c2)cc1 (stereo not drawn) [Compound 13h, trans-2-(3-(2,6-dimethylmorpholino)phenyl)-1-(4-methylbenzyl)cyclopropanecarboxylic acid]
[1]
  MIC: 0.468 ± 0.01 µg/mL
  fold reduction with respect to the MIC of colistin alone, S. Typhimurium: 2 fold
[1]; [4]
  FIC Index S. Typhimurium: 0.90
[2]
  reduction of the MIC of colistin, K. pneumoniae: has not led to a reduction of the MIC of colistin
  MIC Colistin K. pneumoniae: 3.33 ± 1.0 µg/mL
[2]; [4]
  FIC Index K. pneumoniae: 0.85
[2]; compound at 32 and 16 µg/mL
  effect on MIC of colistin, K. pneumoniae: only a slight effect

## CCOC(=O)C1(Cc2ccc(C)cc2)CC1c1cccc(N2CC(C)OC(C)C2)c1 (stereo not drawn) [Compound 12h, trans-ethyl 2-(3-(2,6-dimethylmorpholino)phenyl)-1-(4-methylbenzyl)cyclopropanecarboxylate]
[3]; Salmonella enterica, TYPHIMURIUM, 12 h, read-out: MIC 12h (μg/mL)
  MIC: > 512 µg/mL
[3]; colistin in combination with 12h at 32 μg/mL, DW378 mutant strain
  MIC Colistin: 0.141 ± 0.09 µg/mL
[1]
  MIC: 0.101 ± 0.07 µg/mL
  fold reduction with respect to the MIC of colistin alone, S. Typhimurium: 5 fold
[1]; colistin in combination with 12h at 32 μg/mL, S. Typhimurium ATCC14028 (wild type)
  MIC Colistin: 0.125 ± 0.08 µg/mL
[1]; [4]
  FIC Index S. Typhimurium: 0.21
  FIC Index interpretation S. Typhimurium: synergy (If the FIC index is ≤ 0.5, the association is synergic)
[2]
  reduction of the MIC of colistin, K. pneumoniae: has not led to a reduction of the MIC of colistin
  MIC Colistin K. pneumoniae: 8.00 ± 0.0 µg/mL
[2]; [4]
  FIC Index K. pneumoniae: 2.01
  FIC Index interpretation K. pneumoniae: indifference (indifferent if FIC is between 1 and 4)
